Results on 20 molecules are retold here after US12371428B2 (Exelixis, Inc., priority 2019, dated 2025).

Some results are limits rather than exact numbers.

Test [1] addresses Human MET (residues 956-1390) (Homo sapiens (Human), UniProt P08581). Kind of test: Human Met kinase assay, HTRF KinEase (Example D-2). Type of test: biochemical. Particulars: protocol of Example D-2 (other compounds); read-out: c-Met IC50. The method, boiled down:
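IC50 values come from a 4-parameter logistic fit of the […] fluorescence ratio, set between DMSO (100%) and reference compound at 1 μM (0%). Reactions held MET 956-1390 at 0.1 ng/well, ATP at Km, biotinylated peptide, 5 mM MgCl2, 1 mM MnCl2, 1 mM DTT and 3% DMSO, and ran 40 min at room temperature before streptavidin-XL665/Eu-antibody detection.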

Test [2] deals with Met (phospho-Met, HGF-stimulated PC-3 prostate cancer cells) (Homo sapiens (Human), UniProt P08581). Briefly: Met autophosphorylation ELISA in PC-3 cells (Example F). Particulars: cellular activity; Met autophosphorylation ELISA in PC-3 cells; read-out: c-Met IC50. Type of test: cell-based. The procedure, abridged:
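Sandwich ELISA for phospho-Met (panTyr) in PC-3 lysates. Cells starved 3 h serum-free, compound 1 h (8-pt curve, 0.3% DMSO), HGF 100 ng/mL 10 min. 100% = HGF + DMSO; 0% = HGF + reference inhibitor. IC50 by 4-parameter fit.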
(An ELISA detects its analyte on a solid surface through an enzyme-linked reagent.)

For test [3], the target named is KDR (phospho-KDR, VEGF165-stimulated HUVEC cells) (Homo sapiens (Human), UniProt P35968). Kind of test: KDR autophosphorylation ELISA in HUVEC cells (Example G). As to conditions: cellular activity; KDR autophosphorylation ELISA in HUVEC cells. Type of test: cell-based. The method, boiled down:
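HUVECs were serum-starved 24 h, given compound as an 8-point dilution series (0.3% DMSO final) for 1 h, then stimulated with 100 ng/mL VEGF165 for 5 min. Lysate phospho-KDR was quantified by sandwich ELISA against a phospho-KDR standard, and IC50s came from a 4-parameter logistic fit.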

Sequence of KDR (phospho-KDR, VEGF165-stimulated HUVEC cells) (P35968 20-1356): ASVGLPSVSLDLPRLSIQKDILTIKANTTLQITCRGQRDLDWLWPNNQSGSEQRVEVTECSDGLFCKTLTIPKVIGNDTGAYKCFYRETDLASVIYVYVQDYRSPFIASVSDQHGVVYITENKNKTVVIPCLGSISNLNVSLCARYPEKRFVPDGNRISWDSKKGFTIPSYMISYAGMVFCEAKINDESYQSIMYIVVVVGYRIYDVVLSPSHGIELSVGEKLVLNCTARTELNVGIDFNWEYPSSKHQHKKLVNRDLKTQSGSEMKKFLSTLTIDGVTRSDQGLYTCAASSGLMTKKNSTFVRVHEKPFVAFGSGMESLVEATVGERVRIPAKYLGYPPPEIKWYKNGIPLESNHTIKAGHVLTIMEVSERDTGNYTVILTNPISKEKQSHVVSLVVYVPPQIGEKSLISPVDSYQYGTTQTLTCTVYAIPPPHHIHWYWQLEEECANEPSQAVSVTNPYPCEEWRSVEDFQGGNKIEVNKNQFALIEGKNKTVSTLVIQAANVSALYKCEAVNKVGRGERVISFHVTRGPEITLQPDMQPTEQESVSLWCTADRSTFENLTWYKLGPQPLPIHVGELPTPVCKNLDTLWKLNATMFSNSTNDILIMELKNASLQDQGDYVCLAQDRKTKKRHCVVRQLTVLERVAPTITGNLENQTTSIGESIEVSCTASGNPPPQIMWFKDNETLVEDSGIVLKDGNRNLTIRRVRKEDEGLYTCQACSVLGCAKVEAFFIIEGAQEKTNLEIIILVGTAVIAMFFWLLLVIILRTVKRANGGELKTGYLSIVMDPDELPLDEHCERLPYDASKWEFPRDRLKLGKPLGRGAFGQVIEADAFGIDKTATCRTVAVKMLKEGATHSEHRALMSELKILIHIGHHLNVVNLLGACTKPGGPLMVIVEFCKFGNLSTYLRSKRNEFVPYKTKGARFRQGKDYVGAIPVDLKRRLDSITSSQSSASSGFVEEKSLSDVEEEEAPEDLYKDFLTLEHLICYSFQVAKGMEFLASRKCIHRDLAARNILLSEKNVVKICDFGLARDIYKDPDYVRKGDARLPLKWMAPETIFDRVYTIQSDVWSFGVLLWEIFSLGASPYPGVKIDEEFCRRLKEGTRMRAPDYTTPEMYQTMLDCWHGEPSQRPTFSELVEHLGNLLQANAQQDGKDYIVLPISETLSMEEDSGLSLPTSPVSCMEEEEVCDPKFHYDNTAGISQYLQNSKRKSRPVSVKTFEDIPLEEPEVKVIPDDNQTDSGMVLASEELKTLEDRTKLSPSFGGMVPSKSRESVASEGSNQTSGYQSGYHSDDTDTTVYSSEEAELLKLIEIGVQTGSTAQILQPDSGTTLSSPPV
Sequence of Met (phospho-Met, HGF-stimulated PC-3 prostate cancer cells) (P08581 25-1390): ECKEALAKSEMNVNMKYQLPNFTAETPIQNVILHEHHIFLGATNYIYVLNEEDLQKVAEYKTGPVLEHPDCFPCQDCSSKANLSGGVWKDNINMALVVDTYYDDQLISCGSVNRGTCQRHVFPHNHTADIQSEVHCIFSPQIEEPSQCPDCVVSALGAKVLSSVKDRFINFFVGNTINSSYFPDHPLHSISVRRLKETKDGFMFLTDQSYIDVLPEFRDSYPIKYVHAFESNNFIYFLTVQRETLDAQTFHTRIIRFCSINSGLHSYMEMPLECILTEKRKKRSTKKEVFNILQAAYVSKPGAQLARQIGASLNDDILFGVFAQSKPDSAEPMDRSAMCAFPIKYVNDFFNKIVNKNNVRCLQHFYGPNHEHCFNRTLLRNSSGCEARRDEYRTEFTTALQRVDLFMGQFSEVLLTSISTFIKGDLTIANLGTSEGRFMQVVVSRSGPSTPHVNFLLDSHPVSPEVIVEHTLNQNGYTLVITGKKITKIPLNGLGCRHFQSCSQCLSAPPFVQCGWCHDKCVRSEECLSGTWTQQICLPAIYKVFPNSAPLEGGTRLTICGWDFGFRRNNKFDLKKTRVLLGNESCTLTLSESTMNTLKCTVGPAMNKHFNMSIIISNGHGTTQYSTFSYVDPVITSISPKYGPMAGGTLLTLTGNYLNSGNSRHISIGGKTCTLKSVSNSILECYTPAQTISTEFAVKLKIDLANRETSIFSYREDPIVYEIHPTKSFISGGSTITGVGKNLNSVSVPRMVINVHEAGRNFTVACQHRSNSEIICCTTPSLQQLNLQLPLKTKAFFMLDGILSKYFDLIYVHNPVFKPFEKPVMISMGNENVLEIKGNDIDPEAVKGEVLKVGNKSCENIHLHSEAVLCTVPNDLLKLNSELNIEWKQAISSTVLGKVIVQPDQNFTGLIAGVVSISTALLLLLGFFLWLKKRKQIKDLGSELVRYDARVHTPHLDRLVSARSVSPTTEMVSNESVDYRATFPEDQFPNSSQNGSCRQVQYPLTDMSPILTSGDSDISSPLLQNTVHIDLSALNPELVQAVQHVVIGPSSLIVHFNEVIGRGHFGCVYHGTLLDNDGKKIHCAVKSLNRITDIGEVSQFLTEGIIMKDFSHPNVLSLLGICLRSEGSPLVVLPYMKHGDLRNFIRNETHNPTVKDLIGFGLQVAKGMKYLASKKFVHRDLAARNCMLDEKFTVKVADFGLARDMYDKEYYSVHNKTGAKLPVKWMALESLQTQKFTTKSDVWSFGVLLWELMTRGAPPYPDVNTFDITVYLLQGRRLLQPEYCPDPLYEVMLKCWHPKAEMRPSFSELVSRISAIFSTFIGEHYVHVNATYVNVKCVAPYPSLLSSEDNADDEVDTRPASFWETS
Sequence of Human MET (residues 956-1390) (P08581 956-1390): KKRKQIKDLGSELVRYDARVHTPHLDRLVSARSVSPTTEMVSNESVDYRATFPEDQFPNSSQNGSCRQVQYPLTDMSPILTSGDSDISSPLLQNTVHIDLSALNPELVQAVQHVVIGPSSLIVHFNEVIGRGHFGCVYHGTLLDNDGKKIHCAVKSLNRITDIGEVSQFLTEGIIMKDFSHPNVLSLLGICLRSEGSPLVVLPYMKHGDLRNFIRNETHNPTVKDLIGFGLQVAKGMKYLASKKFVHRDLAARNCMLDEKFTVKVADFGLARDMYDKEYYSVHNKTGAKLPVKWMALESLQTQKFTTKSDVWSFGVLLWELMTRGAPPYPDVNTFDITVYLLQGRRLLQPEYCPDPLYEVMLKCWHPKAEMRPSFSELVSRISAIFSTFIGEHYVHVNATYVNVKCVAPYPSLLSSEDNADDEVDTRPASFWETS

Consider `CCc1nc(C)c(-c2ccc(F)cc2)c(O)c1C(=O)Nc1ccc(Oc2ccnc3cc(OC)cnc23)cc1` [Compound 188, 2-Ethyl-5-(4-fluorophenyl)-4-hydroxy-N-[4-[(7-methoxy-1,5-naphthyridin-4-yl)oxy]phenyl]-6-methylpyridine-3-carboxamide], for which the IC50 in test [1], in test [2] and in test [3] was below 100 nM each time.

For `COCc1nc(C)c(-c2ccc(F)cc2)c(O)c1C(=O)Nc1ccc(Oc2ccnc3ccc(OC)nc23)c(F)c1` [Compound 189, N-[3-Fluoro-4-[(6-methoxy-1,5-naphthyridin-4-yl)oxy]phenyl]-5-(4-fluorophenyl)-4-hydroxy-2-(methoxymethyl)-6-methylpyridine-3-carboxamide], the IC50 in test [1], in test [2] and in test [3] was below 100 nM in each case.

In the case of `COCc1nc(C)c(-c2ccc(F)cc2)c(O)c1C(=O)Nc1ccc(Oc2ccnc3cc(OC)c(OC)nc23)cc1` [Compound 190, N-[4-[(6,7-Dimethoxy-1,5-naphthyridin-4-yl)oxy]phenyl]-5-(4-fluorophenyl)-4-hydroxy-2-(methoxymethyl)-6-methylpyridine-3-carboxamide], the concentration for half-maximal inhibition (IC50) in test [1], in test [2] and in test [3] was below 100 nM throughout.

For the molecule `COCc1nc(C)c(-c2ccc(F)cc2C)c(O)c1C(=O)Nc1ccc(Oc2ccnc3cc(OC)c(OC)nc23)c(F)c1` [Compound 191, N-[4-[(6,7-Dimethoxy-1,5-naphthyridin-4-yl)oxy]-3-fluorophenyl]-5-(4-fluoro-2-methylphenyl)-4-hydroxy-2-(methoxymethyl)-6-methylpyridine-3-carboxamide], the IC50 in test [1], in test [2] and in test [3] was below 100 nM throughout.

Regarding `COCc1nc(C)c(-c2ccc(F)cc2C)c(O)c1C(=O)Nc1ccc(Oc2ccnc3cc(OC)c(OC)nc23)cc1` [Compound 192, N-[4-[(6,7-Dimethoxy-1,5-naphthyridin-4-yl)oxy]phenyl]-5-(4-fluoro-2-methylphenyl)-4-hydroxy-2-(methoxymethyl)-6-methylpyridine-3-carboxamide], the IC50 in test [1], in test [2] and in test [3] was below 100 nM in each case.

As to `COCc1nc(C)c(-c2ccc(F)cc2C)c(O)c1C(=O)Nc1ccc(Oc2ccnc3cc(OC)cnc23)c(F)c1` [Compound 193, N-[3-Fluoro-4-[(7-methoxy-1,5-naphthyridin-4-yl)oxy]phenyl]-5-(4-fluoro-2-methylphenyl)-4-hydroxy-2-(methoxymethyl)-6-methylpyridine-3-carboxamide], the IC50 in test [1], in test [2] and in test [3] was below 100 nM each time.

For `COCc1nc(C)c(-c2ccc(F)cc2C)c(O)c1C(=O)Nc1ccc(Oc2ccnc3cc(OC)cnc23)cc1` [Compound 194, 5-(4-Fluoro-2-methylphenyl)-4-hydroxy-2-(methoxymethyl)-N-[4-[(7-methoxy-1,5-naphthyridin-4-yl)oxy]phenyl]-6-methylpyridine-3-carboxamide], the IC50 in test [1], in test [2] and in test [3] was below 100 nM throughout.

Turning to `COCc1nc(C)c(-c2ccc(F)cc2C)c(O)c1C(=O)Nc1ccc(Oc2ccnc3ccc(OC)nc23)c(F)c1` [Compound 195, N-[3-Fluoro-4-[(6-methoxy-1,5-naphthyridin-4-yl)oxy]phenyl]-5-(4-fluoro-2-methylphenyl)-4-hydroxy-2-(methoxymethyl)-6-methylpyridine-3-carboxamide], the figures for the IC50 in test [1], in test [2] and in test [3] were 100 to 300 nM, below 100 nM and below 100 nM, respectively.

In the case of `COc1cc2nccc(Oc3ccc(NC(=O)c4cn(C)c(C)c(-c5ccc(F)cc5C)c4=O)cc3)c2nc1OC` [Compound 196, N-[4-[(6,7-Dimethoxy-1,5-naphthyridin-4-yl)oxy]phenyl]-5-(4-fluoro-2-methylphenyl)-1,6-dimethyl-4-oxopyridine-3-carboxamide], the IC50 in test [1], in test [2] and in test [3] was below 100 nM throughout.

As to `CCc1nc(C)c(-c2ccc(F)cc2)c(O)c1C(=O)Nc1ccc(Oc2ccnc3cc(OC)c(OC)nc23)cc1` [Compound 197, N-[4-[(6,7-Dimethoxy-1,5-naphthyridin-4-yl)oxy]phenyl]-2-ethyl-5-(4-fluorophenyl)-4-hydroxy-6-methylpyridine-3-carboxamide], the IC50 in test [1], in test [2] and in test [3] was below 100 nM each time.

For `COCCOc1nc2c(Oc3ccc(NC(=O)c4cn(C)c(C)c(-c5ccc(F)cc5)c4=O)cc3F)ccnc2cc1OC` [Compound 198, N-[3-Fluoro-4-[[7-methoxy-6-(2-methoxyethoxy)-1,5-naphthyridin-4-yl]oxy]phenyl]-5-(4-fluorophenyl)-1,6-dimethyl-4-oxopyridine-3-carboxamide], the 50% inhibitory concentration (IC50) in test [1], in test [2] and in test [3] was below 100 nM throughout.

Turning to `COCCOc1nc2c(Oc3ccc(NC(=O)c4c(COC)nc(C)c(-c5ccc(F)cc5)c4O)cc3F)ccnc2cc1OC` [Compound 199, N-[3-Fluoro-4-[[7-methoxy-6-(2-methoxyethoxy)-1,5-naphthyridin-4-yl]oxy]phenyl]-5-(4-fluorophenyl)-4-hydroxy-2-(methoxymethyl)-6-methylpyridine-3-carboxamide], the concentration for half-maximal inhibition (IC50) in test [1], in test [2] and in test [3] was below 100 nM in each case.

On to `COCCOc1nc2c(Oc3ccc(NC(=O)c4cn(C)c(C)c(-c5ccc(F)cc5C)c4=O)cc3F)ccnc2cc1OC` [Compound 200, N-[3-Fluoro-4-[[7-methoxy-6-(2-methoxyethoxy)-1,5-naphthyridin-4-yl]oxy]phenyl]-5-(4-fluoro-2-methylphenyl)-1,6-dimethyl-4-oxopyridine-3-carboxamide], for which the IC50 in test [1], in test [2] and in test [3] was below 100 nM each time.

Consider `COCCOc1nc2c(Oc3ccc(NC(=O)c4c(COC)nc(C)c(-c5ccc(F)cc5C)c4O)cc3F)ccnc2cc1OC` [Compound 201, N-[3-Fluoro-4-[[7-methoxy-6-(2-methoxyethoxy)-1,5-naphthyridin-4-yl]oxy]phenyl]-5-(4-fluoro-2-methylphenyl)-4-hydroxy-2-(methoxymethyl)-6-methylpyridine-3-carboxamide], for which the IC50 in test [1], in test [2] and in test [3] was below 100 nM each time.

Consider `CCc1nc(C)c(-c2ccc(F)cc2C)c(O)c1C(=O)Nc1ccc(Oc2ccnc3cc(OC)c(OC)nc23)c(F)c1` [Compound 202, N-[4-[(6,7-Dimethoxy-1,5-naphthyridin-4-yl)oxy]-3-fluorophenyl]-2-ethyl-5-(4-fluoro-2-methylphenyl)-4-hydroxy-6-methylpyridine-3-carboxamide], for which the 50% inhibitory concentration (IC50) in test [1] was 100 to 300 nM; in test [2], below 100 nM; in test [3], below 100 nM.

Regarding `CCc1nc(C)c(-c2ccc(F)cc2C)c(O)c1C(=O)Nc1ccc(Oc2ccnc3cc(OC)c(OC)nc23)cc1` [Compound 203, N-[4-[(6,7-Dimethoxy-1,5-naphthyridin-4-yl)oxy]phenyl]-2-ethyl-5-(4-fluoro-2-methylphenyl)-4-hydroxy-6-methylpyridine-3-carboxamide], the IC50 in test [1] is 100 to 300 nM; in test [2] it was below 100 nM; in test [3] it was below 100 nM.

With `CCc1nc(C)c(-c2ccc(F)cc2C)c(O)c1C(=O)Nc1ccc(Oc2ccnc3cc(OC)cnc23)c(F)c1` [Compound 204, 2-Ethyl-N-[3-fluoro-4-[(7-methoxy-1,5-naphthyridin-4-yl)oxy]phenyl]-5-(4-fluoro-2-methylphenyl)-4-hydroxy-6-methylpyridine-3-carboxamide], the concentration for half-maximal inhibition (IC50) in test [1] is 100 to 300 nM; in test [2] it was below 100 nM; in test [3], below 100 nM.

Regarding `CCc1nc(C)c(-c2ccc(F)cc2C)c(O)c1C(=O)Nc1ccc(Oc2ccnc3cc(OC)cnc23)cc1` [Compound 205, 2-Ethyl-5-(4-fluoro-2-methylphenyl)-4-hydroxy-N-[4-[(7-methoxy-1,5-naphthyridin-4-yl)oxy]phenyl]-6-methylpyridine-3-carboxamide], the half-maximal inhibitory concentration (IC50) in test [1], in test [2] and in test [3] was below 100 nM throughout.

For `CCc1nc(C)c(-c2ccc(F)cc2C)c(O)c1C(=O)Nc1ccc(Oc2ccnc3ccc(OC)nc23)c(F)c1` [Compound 206, 2-Ethyl-N-[3-fluoro-4-[(6-methoxy-1,5-naphthyridin-4-yl)oxy]phenyl]-5-(4-fluoro-2-methylphenyl)-4-hydroxy-6-methylpyridine-3-carboxamide], the figures for the 50% inhibitory concentration (IC50) in test [1], in test [2] and in test [3] were 100 to 300 nM, below 100 nM and below 100 nM, respectively.

Turning to `COc1cnc2c(Oc3ccc(NC(=O)c4ccc(C)n(-c5ccc(F)cc5)c4=O)cc3)ccnc2c1` [Compound 216, 1-(4-Fluorophenyl)-N-[4-[(7-methoxy-1,5-naphthyridin-4-yl)oxy]phenyl]-6-methyl-2-oxopyridine-3-carboxamide], the IC50 in test [1], in test [2] and in test [3] was below 100 nM each time.

As a reminder, the IC50 is the point on the concentration scale where inhibition reaches its midpoint.
